Laboratory results from patent US20120238532A1, “TREATMENT OF HUMAN OSTEOSARCOMA” (CEDARS-SINAI MEDICAL CENTER, priority 2009, published 2012).

Assays:
MG-63 cells [1] = test: Cell cycle analysis (PI, FACS), MG-63; assay type: cell-based, human; conditions: alone at ED50 (50 nM)
Procedure: (§1) Cells were harvested and fixed with 70% ethanol at regular time intervals. Fixed cells were stained with propidium iodide (PI) for flow cytometry analysis using BD FACScan (BD Biosciences, San Jose, Calif.). Distribution of cell cycle was analyzed by ModFit LT V2.0 software (Verity Software House, Topsham, Me.). […] After 24, 48, and 72 hours of exposure, cells were harvested and stained with PI and fluorescein isothiocyanate (FITC) using Annexin V-FITC apoptosis detection kit (BD Biosciences) according to the manufacturer's protocol. Cells were subjected to flow cytometry analysis within one hour of staining.

Organ weight in mice = assay type: in vivo; conditions: LD-MTX 150 mg/kg; day 35
Description: (§2) At autopsy, tumors and internal organs including liver, spleen, kidneys were excised, weighed, and then fixed in 10% PBS-buffered formalin and maintained in 70% ethanol. For IHC, fixed tumors and organs were embedded in paraplast (Oxford Labware, St. Louis, Mo.), cut in 6 μm thick sections, and stained with hematoxylin and eosin (HE) for histopathological examination.

Blood counts in mice = assay type: in vivo; conditions: LD-MTX 150 mg/kg; day 35
Procedure: (§3) Whole blood samples were obtained by submandibular bleeding and serum samples were harvested with serum separator tubes (BD Biosciences). Blood count and serum chemistry results were obtained by the Hemagen Analyst Benchtop Chemistry System (Hemagen Diagnostics, Inc. Columbia, Md.). Colony-forming cell (CFC) assays were performed as previously described (18).

MG-63 xenografts [2] = test: Growth of MG-63 xenografts in athymic nude mice; assay type: in vivo; conditions: LD-MTX 150 mg/kg, single agent
Procedure: All animal experiments strictly followed the guidelines of Cedars-Sinai Medical Center and the National Institute of Health (NIH). Female nu/nu athymic nude mice (5-6 weeks old; average weight 21 g; specific pathogen-free) from Harlan Laboratories (Indianapolis, Ind.) were maintained in pathogen-free condition with sterilized chow and water. 5×10^6 cells of MG-63 cells were mixed with 200 μl of Matrigel solution (BD Biosciences) per injection, and the mixture was injected subcutaneously on the upper flanks of nude mice. After 24 hours, tumor size was measured, and any outliers were ruled out by one-way analysis of variance (ANOVA) test. […] The conversion was made using dose translation formula by Reagan-Shaw et al., (15). […] Body weights were monitored every 2 days. Tumor size was measured every 2 days, and the tumor volume was calculated using the following formula: A (length)×B (width)×C (height)×0.5236 (16). The experiment was stopped at day 35, and all mice were sacrificed. The presence of metastatic spread was examined macroscopically at the time of autopsy followed by histological examination. At least two tumors from each group were snap-frozen in liquid nitrogen for Western blotting.

[3] = Body weight and side-effects during xenograft treatment; assay type: in vivo, mice; conditions: LD-MTX 150 mg/kg
Procedure: All animal experiments strictly followed the guidelines of Cedars-Sinai Medical Center and the National Institute of Health (NIH). Female nu/nu athymic nude mice (5-6 weeks old; average weight 21 g; specific pathogen-free) from Harlan Laboratories (Indianapolis, Ind.) were maintained in pathogen-free condition with sterilized chow and water. 5×10^6 cells of MG-63 cells were mixed with 200 μl of Matrigel solution (BD Biosciences) per injection, and the mixture was injected subcutaneously on the upper flanks of nude mice. After 24 hours, tumor size was measured, and any outliers were ruled out by one-way analysis of variance (ANOVA) test. […] The dose of LD-MTX was the murine equivalent of the human dose of LD-MTX. The conversion was made using dose translation formula by Reagan-Shaw et al., (15). […] Body weights were monitored every 2 days. Tumor size was measured every 2 days, and the tumor volume was calculated using the following formula: A (length)×B (width)×C (height)×0.5236 (16). The experiment was stopped at day 35, and all mice were sacrificed. The presence of metastatic spread was examined macroscopically at the time of autopsy followed by histological examination. At least two tumors from each group were snap-frozen in liquid nitrogen for Western blotting.

human OS cells = conditions: LD-MTX alone; xenograft studies using murine models (refs 24, 37); cited from earlier work
Serum chemistry in mice = assay type: in vivo; conditions: LD-MTX 150 mg/kg; day 35
Procedure: as §3

MG-63 cells [4] = test: MTT assay, MG-63 (dose-response, pulse-exposure, combination); assay type: cell-based, human; conditions: Homo sapiens, MTT, 48 hours of exposure, read-out: ED50 (the source's name)
Procedure: 7 human OS cell lines (U2OS, G292, MG-63, HT-161, HOS, SAOS-2, and SJSA) were used in the study. Each cell line except HT-161 was obtained from the American Type Culture Collection (ATCC, Rockville, Md.). HT-161 was obtained from Dr. Emil Bogenmann (13). All cell lines were tested and authenticated prior to use according to cell line verification test recommendations by ATCC. OS cell lines were maintained in DMEM medium (Mediatech Inc., Herndon, Va.) supplemented with 10% fetal bovine serum (FBS; Atlanta Biological, Lawrenceville, Ga.) in a humidified incubator at 37° C. supplied with 5% CO2. Only the cells in exponential growth phase were used in the study.
Cell growth and survival were measured by 3-(4,5-dimethylthiazol-2-yl)-2,5-diphenyltetrazolium bromide (MTT) assay. […] After 48 hours of incubation, 10 μl of 5 mg/ml MTT solution (Sigma-Aldrich, St. Louis, Mo.) was added to each well and incubated further for 2 hours. […] For pulse-exposure experiments, MG-63 and SAOS-2 cells were seeded in 96-well plates and exposed to CuB at their ED50. After 2, 9, and 20 hours of exposure, cells were washed twice with PBS and incubated further in CuB-free media. Cell growth was checked by MTT assay at 24, 48, and 72 hours.
Calcusyn 2.0 (Biosoft, Ferguson, Mo.) was used for CI analysis.

[5] = system: clonogenic hematopoietic cells; test: Colony-forming cell (CFC) assays of bone marrow; conditions: LD-MTX 150 mg/kg; day 35; 2 × 10^4 cells/well
Procedure: as §3

MG-63 cells [6] = test: Annexin V-FITC apoptosis assay, MG-63; assay type: cell-based, human; conditions: at ED50, 72 hours of exposure
Procedure: as §1

MG-63 xenografts [7] = test: Immunohistochemistry of xenografts (HE, Ki-67, TUNEL); assay type: in vivo, mice; conditions: LD-MTX 150 mg/kg; day 35
Description: as §2
For Ki-67 proliferation assay, tumor sections were deparaffinized with xylene and rehydrated through graded ethanol. Endogenous peroxidase activity was blocked with 3% hydrogen peroxide in methanol. […] After incubation, tumor sections were stained with diaminobenzidine (DAB) and counterstained with hematoxylin. Terminal deoxynucleotidyl transferase dUTP nick end labeling (TUNEL) apoptosis assay was performed using ApopTaq Plus Peroxidase In Situ Apoptosis Kit (Millipore) according to the manufacturer's protocol. Percent positive cells in representative microscopic fields were counted using ImageJ (17).

Kidney organ weight (Organ weight in mice): 345 ± 1 mg
Liver organ weight (Organ weight in mice): 1120 ± 21 mg
Spleen organ weight (Organ weight in mice): 135 ± 7 mg
Basophils (Blood counts in mice): 0.00 ± 0.00 K/μl
Eosinophils (Blood counts in mice): 0.00 ± 0.00 K/μl
Lymphocytes (Blood counts in mice): 4.05 ± 0.58 K/μl
Monocytes (Blood counts in mice): 0.17 ± 0.04 K/μl
Neutrophills (Blood counts in mice): 0.56 ± 0.42 K/μl
RBCs (Blood counts in mice): 7.69 ± 0.16 M/μl
WBCs (Blood counts in mice): 4.80 ± 0.99 K/μl
CK (Serum chemistry in mice): 183.0 ± 140 U/l
bilirubin (Serum chemistry in mice): 0.12 ± 0.00 mg/dL
cholesterol (Serum chemistry in mice): 148.5 ± 24.7 mg/dL
creatine (Serum chemistry in mice): 0.39 ± 0.21 mg/dL
globulin (Serum chemistry in mice): 1.3 ± 0.4 g/dL
total protein (Serum chemistry in mice): 4.6 ± 0.7 g/dL
uric acid (Serum chemistry in mice): 4.7 ± 0.8 mg/dL
BFU-E, number of colonies [5]: 7.1 ± 0.8
CFU-GEMM, number of colonies [5]: 3.4 ± 0.5
CFU-GM, number of colonies [5]: 64.6 ± 3.6
Compound: CN(Cc1cnc2nc(N)nc(N)c2n1)c1ccc(C(=O)N[C@@H](CCC(=O)O)C(=O)O)cc1 [MTX, methotrexate, reference compound]
earliest sign of S-phase arrest (MG-63 cells [1]): 48 h
tumor volume (MG-63 xenografts [2]): allowed the tumor volume to increase slightly from its original size
mice with sluggish movements, occasional diarrhea, and a patchy skin rash [3]: 60%
body weight loss ([3]; some mice, 48 hours after MTX injection): 10%
growth inhibition of human OS cells (human OS cells): < 20%
EC50 (MG-63 cells [4]): 50 nM
apoptotic cells (MG-63 cells [6]): 30%
HE-stained tumors (MG-63 xenografts [7]): less number of blood vessels
